The values that follow come from ChEMBL document CHEMBL3991601, “The target landscape of clinical kinase drugs” (Science, 2017).

Assay [1] addresses T1, Serine/threonine-protein kinase 4 (Homo sapiens, UniProt Q13043).
T1 sequence (Q13043 whole entry): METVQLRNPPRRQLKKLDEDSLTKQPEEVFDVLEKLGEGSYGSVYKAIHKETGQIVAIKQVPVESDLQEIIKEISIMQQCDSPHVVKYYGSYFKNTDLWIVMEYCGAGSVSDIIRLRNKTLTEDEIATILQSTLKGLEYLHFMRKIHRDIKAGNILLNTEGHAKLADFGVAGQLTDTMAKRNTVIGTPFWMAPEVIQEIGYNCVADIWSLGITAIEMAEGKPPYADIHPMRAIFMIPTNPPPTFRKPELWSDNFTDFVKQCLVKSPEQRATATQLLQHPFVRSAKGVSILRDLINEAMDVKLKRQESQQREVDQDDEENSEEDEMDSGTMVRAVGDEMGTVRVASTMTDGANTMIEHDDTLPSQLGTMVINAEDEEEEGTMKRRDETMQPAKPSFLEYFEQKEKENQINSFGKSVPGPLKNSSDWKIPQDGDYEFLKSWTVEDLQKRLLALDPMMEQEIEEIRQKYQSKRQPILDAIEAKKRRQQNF

Assay [2] concerns the target T2, Serine/threonine-protein kinase Nek3 (Homo sapiens, UniProt P51956).
T2 sequence (P51956 whole entry): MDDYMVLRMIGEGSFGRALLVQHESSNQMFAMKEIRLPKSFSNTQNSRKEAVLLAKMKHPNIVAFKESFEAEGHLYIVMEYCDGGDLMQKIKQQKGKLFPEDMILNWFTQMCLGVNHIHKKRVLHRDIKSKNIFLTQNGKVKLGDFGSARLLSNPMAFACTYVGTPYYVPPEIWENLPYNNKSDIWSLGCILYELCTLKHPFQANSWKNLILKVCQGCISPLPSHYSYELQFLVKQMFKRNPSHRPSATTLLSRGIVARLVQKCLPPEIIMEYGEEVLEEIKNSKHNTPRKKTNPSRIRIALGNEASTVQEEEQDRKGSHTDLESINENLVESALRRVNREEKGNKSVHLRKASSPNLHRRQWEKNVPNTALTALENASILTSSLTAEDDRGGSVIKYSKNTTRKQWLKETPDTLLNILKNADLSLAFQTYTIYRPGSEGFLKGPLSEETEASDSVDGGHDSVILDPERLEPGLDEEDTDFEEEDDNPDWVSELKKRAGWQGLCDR

For assay [3], the target named is Mitogen-activated protein kinase kinase kinase kinase 1 (Homo sapiens, UniProt Q92918).
Chain of Mitogen-activated protein kinase kinase kinase kinase 1 (Q92918 whole entry): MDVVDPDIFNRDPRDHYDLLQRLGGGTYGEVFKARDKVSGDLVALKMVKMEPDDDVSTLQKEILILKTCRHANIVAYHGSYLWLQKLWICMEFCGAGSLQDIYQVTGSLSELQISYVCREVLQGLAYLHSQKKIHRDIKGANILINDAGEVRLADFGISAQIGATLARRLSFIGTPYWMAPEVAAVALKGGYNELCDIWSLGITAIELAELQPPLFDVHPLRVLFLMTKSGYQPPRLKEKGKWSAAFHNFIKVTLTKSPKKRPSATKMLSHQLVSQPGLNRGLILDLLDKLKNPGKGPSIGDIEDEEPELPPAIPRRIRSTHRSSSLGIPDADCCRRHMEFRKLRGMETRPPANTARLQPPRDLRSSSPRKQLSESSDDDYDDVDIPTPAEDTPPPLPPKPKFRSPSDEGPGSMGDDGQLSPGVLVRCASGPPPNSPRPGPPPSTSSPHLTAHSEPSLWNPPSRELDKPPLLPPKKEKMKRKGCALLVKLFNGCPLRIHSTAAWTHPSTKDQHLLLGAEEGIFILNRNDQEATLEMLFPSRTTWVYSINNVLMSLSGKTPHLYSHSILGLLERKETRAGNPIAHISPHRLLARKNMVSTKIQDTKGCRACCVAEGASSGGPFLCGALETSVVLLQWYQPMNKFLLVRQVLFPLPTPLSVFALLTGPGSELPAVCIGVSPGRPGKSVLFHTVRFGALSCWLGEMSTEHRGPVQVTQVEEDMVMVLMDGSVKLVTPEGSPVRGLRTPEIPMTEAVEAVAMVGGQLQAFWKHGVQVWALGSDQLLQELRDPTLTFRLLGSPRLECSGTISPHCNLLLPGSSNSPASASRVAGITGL
Assay [4] has as its target Fibroblast growth factor receptor 1 (Homo sapiens, UniProt P11362).
In assay [5] the target is T3, Bone morphogenetic protein receptor type-2 (Homo sapiens, UniProt Q13873).
T3 sequence (Q13873 whole entry): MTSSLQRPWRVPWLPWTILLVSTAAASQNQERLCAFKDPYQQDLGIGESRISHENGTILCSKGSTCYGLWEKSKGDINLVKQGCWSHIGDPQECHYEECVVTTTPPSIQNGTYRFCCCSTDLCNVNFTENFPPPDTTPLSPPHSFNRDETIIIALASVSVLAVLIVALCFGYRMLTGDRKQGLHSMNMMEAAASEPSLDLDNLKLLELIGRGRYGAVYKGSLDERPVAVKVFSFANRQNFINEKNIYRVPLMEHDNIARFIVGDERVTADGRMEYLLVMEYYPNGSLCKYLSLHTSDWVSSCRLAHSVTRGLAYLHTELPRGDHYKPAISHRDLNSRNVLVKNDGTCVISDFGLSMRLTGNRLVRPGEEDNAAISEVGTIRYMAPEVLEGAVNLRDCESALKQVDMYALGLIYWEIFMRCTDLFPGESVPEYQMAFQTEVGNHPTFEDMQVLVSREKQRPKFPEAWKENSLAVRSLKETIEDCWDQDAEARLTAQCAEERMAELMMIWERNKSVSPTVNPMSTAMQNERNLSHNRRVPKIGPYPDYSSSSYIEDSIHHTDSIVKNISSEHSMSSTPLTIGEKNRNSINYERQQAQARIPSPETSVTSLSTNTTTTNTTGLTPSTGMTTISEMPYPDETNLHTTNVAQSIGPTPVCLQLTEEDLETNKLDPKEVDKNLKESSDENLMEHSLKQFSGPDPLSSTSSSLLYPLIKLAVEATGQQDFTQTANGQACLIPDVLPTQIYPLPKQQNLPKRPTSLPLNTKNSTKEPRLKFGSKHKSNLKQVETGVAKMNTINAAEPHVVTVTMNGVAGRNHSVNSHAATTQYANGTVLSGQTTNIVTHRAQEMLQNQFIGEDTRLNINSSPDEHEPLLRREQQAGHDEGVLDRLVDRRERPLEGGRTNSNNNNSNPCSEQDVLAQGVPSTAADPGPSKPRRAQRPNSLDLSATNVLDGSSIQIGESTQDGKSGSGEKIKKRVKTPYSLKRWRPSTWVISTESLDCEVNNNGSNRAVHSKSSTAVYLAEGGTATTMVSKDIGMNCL

The target in assay [6] is Ribosomal protein S6 kinase alpha-3 (Homo sapiens, UniProt P51812).
Chain of Ribosomal protein S6 kinase alpha-3 (P51812 whole entry): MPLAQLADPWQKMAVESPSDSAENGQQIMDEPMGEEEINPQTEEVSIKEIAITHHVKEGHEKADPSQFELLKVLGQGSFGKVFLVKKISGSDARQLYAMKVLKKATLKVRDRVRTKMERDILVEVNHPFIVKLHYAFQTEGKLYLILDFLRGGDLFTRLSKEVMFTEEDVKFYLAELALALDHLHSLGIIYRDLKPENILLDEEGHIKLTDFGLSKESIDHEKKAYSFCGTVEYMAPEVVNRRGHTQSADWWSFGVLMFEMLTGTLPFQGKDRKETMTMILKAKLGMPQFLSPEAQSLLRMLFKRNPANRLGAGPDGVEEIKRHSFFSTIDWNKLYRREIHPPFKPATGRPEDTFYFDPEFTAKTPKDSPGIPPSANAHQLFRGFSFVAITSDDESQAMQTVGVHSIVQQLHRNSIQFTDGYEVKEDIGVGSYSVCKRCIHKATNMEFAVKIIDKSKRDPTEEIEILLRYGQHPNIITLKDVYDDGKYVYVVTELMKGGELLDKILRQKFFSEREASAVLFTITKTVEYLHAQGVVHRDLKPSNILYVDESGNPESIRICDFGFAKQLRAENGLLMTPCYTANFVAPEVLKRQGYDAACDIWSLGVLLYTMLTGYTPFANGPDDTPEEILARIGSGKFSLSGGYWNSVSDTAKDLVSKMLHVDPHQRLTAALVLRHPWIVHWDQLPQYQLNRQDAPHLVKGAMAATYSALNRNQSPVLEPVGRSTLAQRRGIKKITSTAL

The structures appear in SMILES notation. Calls of active or inactive are those of the source. Rule as the data show it: actives have a measured Kd and inactives only a lower limit.
Also: in the data inactive means no Kd found up to 30 µM.

Chain of Fibroblast growth factor receptor 1 (P11362 whole entry): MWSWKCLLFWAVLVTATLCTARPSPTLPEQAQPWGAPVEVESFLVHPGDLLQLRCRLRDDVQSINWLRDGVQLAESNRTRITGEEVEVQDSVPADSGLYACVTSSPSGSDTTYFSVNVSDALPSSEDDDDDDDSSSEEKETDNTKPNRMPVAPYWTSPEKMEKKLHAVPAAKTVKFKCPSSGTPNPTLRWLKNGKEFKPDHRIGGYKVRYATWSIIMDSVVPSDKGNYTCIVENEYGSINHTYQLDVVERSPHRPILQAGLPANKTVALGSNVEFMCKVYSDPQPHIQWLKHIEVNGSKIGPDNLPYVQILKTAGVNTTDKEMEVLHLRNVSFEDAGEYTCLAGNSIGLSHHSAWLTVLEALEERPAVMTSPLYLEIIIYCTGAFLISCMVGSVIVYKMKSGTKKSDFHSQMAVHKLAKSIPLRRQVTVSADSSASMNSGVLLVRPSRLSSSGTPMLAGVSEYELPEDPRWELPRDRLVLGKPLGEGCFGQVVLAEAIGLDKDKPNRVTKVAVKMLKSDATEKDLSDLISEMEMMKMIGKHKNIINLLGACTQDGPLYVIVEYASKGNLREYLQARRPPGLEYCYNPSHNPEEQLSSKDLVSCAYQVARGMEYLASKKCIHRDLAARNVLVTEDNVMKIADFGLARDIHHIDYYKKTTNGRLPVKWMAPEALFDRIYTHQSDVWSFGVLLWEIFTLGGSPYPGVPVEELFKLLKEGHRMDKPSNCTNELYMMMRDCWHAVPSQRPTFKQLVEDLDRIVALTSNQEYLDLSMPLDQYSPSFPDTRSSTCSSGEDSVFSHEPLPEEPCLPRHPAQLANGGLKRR

As for `Cn1cc(-c2ccc3nnc(C(F)(F)c4ccc5ncccc5c4)n3n2)cn1` [JNJ-38877605], the Kd in assay [1], in assay [2], in assay [3], in assay [4], in assay [5] and in assay [6] was > 30 µM (inactive) throughout.
For the compound `Cc1ccc(-n2nc(C(C)(C)C)cc2NC(=O)NCc2cc(F)ccc2Oc2ccc3c(cnn3CCO)c2)cc1` [PEXMETINIB], the Kd in assay [1] was > 30 µM (inactive); in assay [2], > 30 µM (inactive); in assay [3], > 30 µM (inactive); in assay [4], 2.67 µM (active); in assay [5], > 30 µM (inactive); in assay [6], > 30 µM (inactive).
`Cc1c(F)cc(C(=O)NC2CC2)cc1-c1ccc(C(=O)NCC(C)(C)C)cn1` [LOSMAPIMOD]: the Kd in assay [1], in assay [2], in assay [3], in assay [4], in assay [5] and in assay [6] was > 30 µM (inactive) in each case.
Consider `COc1cc(N2CCC(N3CCN(C)CC3)CC2)ccc1Nc1ncnc(Nc2ccccc2S(=O)(=O)C(C)C)n1` [ASP-3026], for which the Kd in assay [1], in assay [2], in assay [3], in assay [4], in assay [5] and in assay [6] was > 30 µM (inactive) throughout.
Turning to `CNC(=O)c1ccc(-c2cnc3ncc(Cc4ccc5ncccc5c4)n3n2)cc1F` [CAPMATINIB], the Kd in assay [1], in assay [2], in assay [3], in assay [4], in assay [5] and in assay [6] was > 30 µM (inactive) throughout.
As for `CNC(=O)c1ccc(C)c(-n2c(C)cc(OCc3ccc(F)cc3F)c(Br)c2=O)c1` [PH-797804], the Kd in assay [1], in assay [2], in assay [3], in assay [4], in assay [5] and in assay [6] was > 30 µM (inactive) throughout.
Turning to `C[C@@H](Nc1cc(F)cc(F)c1)c1cc(C(=O)N(C)C)cc2c(=O)cc(N3CCOCC3)oc12` [AZD-8186], the Kd in assay [1], in assay [2], in assay [3], in assay [4], in assay [5] and in assay [6] was > 30 µM (inactive) throughout.
With `CN1CCC(COc2cnc(-c3cccc(Cn4nc(-c5cccc(C#N)c5)ccc4=O)c3)nc2)CC1` [TEPOTINIB], the Kd in assay [1], in assay [2], in assay [3], in assay [4], in assay [5] and in assay [6] was > 30 µM (inactive) throughout.
As for `CCCS(=O)(=O)Nc1ccc(F)c(C(=O)c2c[nH]c3ncc(-c4ccc(Cl)cc4)cc23)c1F` [VEMURAFENIB], the Kd in assay [1], in assay [2], in assay [3], in assay [4], in assay [5] and in assay [6] was > 30 µM (inactive) in each case.
With `N[C@@H]1CCCN(c2c(/C=C3\SC(=O)NC3=O)cccc2-c2ccccc2)C1`, the Kd in assay [1], in assay [2], in assay [3], in assay [4], in assay [5] and in assay [6] was > 30 µM (inactive) throughout.
On to `O=C(O)[C@]1(Cc2cccc(Nc3nccs3)n2)CC[C@@H](Oc2cccc(Cl)c2F)CC1` [MK-5108], for which the Kd in assay [1] was 2.37 µM (active); in assay [2], > 30 µM (inactive); in assay [3], > 30 µM (inactive); in assay [4], > 30 µM (inactive); in assay [5], > 30 µM (inactive); in assay [6] it was > 30 µM (inactive).
`COc1cc(OC)c(/C=C/S(=O)(=O)Cc2ccc(OC)c(NCC(=O)O)c2)c(OC)c1` [RIGOSERTIB]: the Kd in assay [1], in assay [2], in assay [3], in assay [4], in assay [5] and in assay [6] was > 30 µM (inactive) in each case.
As to `CC[C@@H]1C(=O)N(C)c2cnc(Nc3ccc(C(=O)N[C@H]4CC[C@H](N5CCN(CC6CC6)CC5)CC4)cc3OC)nc2N1C(C)C` [VOLASERTIB], the Kd in assay [1] is > 30 µM (inactive); in assay [2] it was 2.96 µM (active); in assay [3], > 30 µM (inactive); in assay [4] it was > 30 µM (inactive); in assay [5], > 30 µM (inactive); in assay [6] it was > 30 µM (inactive).
For `Cc1cc(-c2cc(O)ccc2Cl)cc2nnc(Nc3ccc(OCCN4CCCC4)cc3)nc12`, the Kd in assay [1] was > 30 µM (inactive); in assay [2], > 30 µM (inactive); in assay [3], > 30 µM (inactive); in assay [4], > 30 µM (inactive); in assay [5], 0.003 µM (active); in assay [6], > 30 µM (inactive).
In the case of `CCn1c(=O)c(-c2cc[nH]n2)cc2c(C)nc(N)nc21` [VOXTALISIB], the Kd in assay [1], in assay [2], in assay [3], in assay [4], in assay [5] and in assay [6] was > 30 µM (inactive) throughout.
`Cn1ncc(Cl)c1-c1cc(C(=O)N[C@H](CN)Cc2cccc(F)c2)sc1Cl` [AFURESERTIB]: the Kd in assay [1], in assay [2], in assay [3], in assay [4], in assay [5] and in assay [6] was > 30 µM (inactive) throughout.
As for `Cc1cc2c(F)c(Oc3ncnn4cc(OC[C@@H](C)OC(=O)[C@H](C)N)c(C)c34)ccc2[nH]1` [BRIVANIB ALANINATE], the Kd is > 30 µM (inactive) in assay [1]; > 30 µM (inactive) in assay [2]; > 30 µM (inactive) in assay [3]; 3.9 µM (active) in assay [4]; > 30 µM (inactive) in assay [5]; > 30 µM (inactive) in assay [6].
Consider `CN1CCC(CNc2ccc3ncc(-c4cccc(OC(F)(F)F)c4)n3n2)CC1` [SGI-1776], for which the Kd in assay [1], in assay [2], in assay [3], in assay [4], in assay [5] and in assay [6] was > 30 µM (inactive) in each case.
